From patent US20230140972A1, “GLYCEROL GLUCOSIDE-BASED COMPOUND AND COMPOSITION COMPRISING SAME FOR ULTRAVIOLET LIGHT SHIELD OR ANTI-INFLAMMATION” (ATHENA CO., LTD., priority 2020, published 2023)
Values joined by “and” are separate entries in the source; they are usually repeats but may differ in a detail not shown here. Equal values may be shown once.

Assays:
[1] = tested on: TNF-α production in RAW264.7 cells; experiment: TNF-α production inhibition using ELISA assay; assay type: cell-based; conditions: Mus musculus, LPS 10 ng/mL
Description: A TNF-α production inhibition ability of the sample in RAW264.7 cells was evaluated using a TNF-α ELISA assay.
(§1) Specifically, subcultured RAW264.7 cells were aliquoted into a 6-well dish at 1.5×10^6 cells/well, and cultured for 24 hours at 37° C. in an incubator containing 5% carbon dioxide, and then a culture media was replaced with a serum-free media. Then, each sample was diluted by concentration and treated onto the cells with LPS (final 10 ng/mL). After culturing for 24 hours, the cell culture medium was recovered and the TNF-α ELISA assay was performed.
50 μL of an assay diluent was put into each well, and 50 μL of each of a standard solution and a cell culture solution were added to each well and reacted at room temperature for 2 hours. Thereafter, the reaction solution was removed from each well, washed with a wash buffer, 100 μL of TNF-α conjugate was added, and after reacting at room temperature for 2 hours, the reaction solution was removed from each well and washing is performed with a wash buffer.
Thereafter, 100 μL of a substrate solution was added and a reaction under light blocking was carried out at room temperature, and then 100 μL of a stop solution was added, and an absorbance was measured at 450 and 570 nm. Dexamethasone was used as a positive control group. After the test was conducted once, a TNF-α synthesis amount was calculated by substituting the absorbance value into a TNF-α standard solution calibration curve, and then the TNF-α production inhibition rate (%) was calculated using Equation 3 below, and expressed as the mean±standard deviation of the experiment.

[2] = tested on: PGE2 production in RAW264.7 cells; experiment: PGE2 production inhibition using ELISA assay; assay type: cell-based, mouse; conditions: LPS 10 ng/mL
Description: A PGE2 production inhibition ability of the sample in RAW264.7 cells was evaluated using a PGE2 ELISA assay.
as §1, with “cells/well” for “cells/well,”, “a PGE2” for “the TNF-α”
100 μL of each of a standard solution and a cell culture solution were put into each well, and then 50 μL of PGE2 conjugate and 50 μL of PGE2 antibody were sequentially added and reacted at room temperature for 2 hours. Then, the reaction solution was removed from each well, washing is performed with a wash buffer, 200 μL of a substrate solution was then added, and reacted at room temperature for 45 minutes. Then, 50 μL of a stop solution was added and an absorbance was measured at 405 and 570 nm. Dexamethasone was used as a positive control group. After the test was conducted once, an amount of PGE2 production was calculated by substituting the absorbance value into a PGE2 standard solution calibration curve, and the PGE2 production inhibition rate (%) was calculated using Equation 5 below and expressed as the mean±standard deviation.

[3] = tested on: NO2 production in LPS-treated RAW264.7 cells; experiment: Nitric oxide (NO2) production amount and inhibition, non-enzymatic method; assay type: cell-based, mouse; conditions: LPS 1 μg/mL, 24 h
Description: An NO assay was performed to evaluate an amount of nitric oxide (NO2) production and a production inhibition ability of the glycerol glucoside-based compound sample (EPS-S).
Specifically, subcultured RAW264.7 cells were aliquoted into a 96-well plate at 1×10^5 cells/well, and cultured at 37° C. in an incubator containing 5% carbon dioxide for 24 hours, and then a culture media was replaced with a serum-free media. […] Dexamethasone was used as a positive control group.

p-IKK = experiment: Western blot of p-IKK protein expression; assay type: cell-based, mouse; conditions: RAW264.7 cells, LPS, 15 minutes, 100 ppm; untreated = 100, negative control 1001.95
Description: (§2) A western blot was performed as follows to observe p-IKK, p-IκB and p-NF-κB protein expression abilities of the glycerol glucoside-based compound sample (EPS-S).
(§3) Specifically, the subcultured mouse-derived macrophage line, RAW264.7 cells, were aliquoted in a 60 mm dish at 1.5×10^6 cells, and cultured for 24 hours at 37° C. in an incubator containing 5% carbon dioxide, and then a culture media was replaced with a serum-free media. Then, the glycerol glucoside-based compound sample (EPS-S) was diluted by concentration and treated onto the cells with LPS (final 1 μg/mL). After culturing for 15 minutes, protein was lysed (lysis) to recover cytoplasmic and nuclear extracts, and proteins were separated by size through SDS-PAGE. After transferring the protein to a membrane through a transfer, a primary antibody was attached thereto and reacted at 4° C. overnight. After the primary reaction, a secondary antibody was attached thereto, and reacted at room temperature for 1 hour, an ECL solution was sprayed on the entire surface, and a band image was obtained through a bioimage analyzer. After obtaining a band intensity of each band through Image J, normalization was performed using β-acitn and substituted in Equation 7 below to obtain the expression rate of p-IKK, p-IκB and p-NF-κB proteins in the treated sample group compared to the untreated group.

p-IκB = experiment: Western blot of p-IκB protein expression; assay type: cell-based, mouse; conditions: RAW264.7 cells, LPS, 15 minutes, 100 ppm; untreated = 100, negative control 390.06
Description: as §2, §3

p-NF-κB = experiment: Western blot of p-NF-κB protein expression; assay type: cell-based, mouse; conditions: RAW264.7 cells, LPS, 15 minutes, 100 ppm; untreated = 100, negative control 222.25
Description: as §2, §3

## COCC(COC)OC1OC(CO)C(O)C(O)C1O (centres unmarked) [EPS-S]
[1]; 24 h, 10 ppm, read-out: TNF-α production inhibition ability
  inhibition at 10 ppm: 29.7%
[1]; 24 h, 100 ppm, read-out: TNF-α production inhibition ability
  inhibition at 100 ppm: 34.9%
[1]; 24 h, 500 ppm, read-out: TNF-α production inhibition ability
  inhibition at 500 ppm: 49.7%
[1]; 24 h, 1,000 ppm, read-out: TNF-α production inhibition ability
  inhibition at 1000 ppm: 77.6%
[2]; Mus musculus, RAW264.7, 24 h, 10 ppm, read-out: PGE2 production inhibitory ability
  inhibition at 10 ppm: 28.3%
[2]; Mus musculus, RAW264.7, 24 h, 100 ppm, read-out: PGE2 production inhibitory ability
  inhibition at 100 ppm: 36.5%
[2]; Mus musculus, RAW264.7, 24 h, 500 ppm, read-out: PGE2 production inhibitory ability
  inhibition at 500 ppm: 47.2%
[2]; Mus musculus, RAW264.7, 24 h, 1,000 ppm, read-out: PGE2 production inhibitory ability
  inhibition at 1000 ppm: 94.1%
[3]; 10 ppm
  NO2 production amount: 23.14 ± 0.25 µM
[3]; 100 ppm
  NO2 production amount: 23.14 µM and 22.57 ± 0.16 µM
[3]; 500 ppm (text b168)
  NO2 production amount: 22.57 µM
[3]; 1000 ppm
  NO2 production amount: 20.90 µM and 20.90 ± 0.50 µM
[3]; Mus musculus, RAW264.7, 100 ppm, read-out: NO2 production inhibition rate
  inhibition at 100 ppm: 9.47%
[3]; Mus musculus, RAW264.7, 500 ppm, read-out: NO2 production inhibition rate
  inhibition at 500 ppm: 13.2%
[3]; Mus musculus, RAW264.7, 1000 ppm, read-out: NO2 production inhibition rate
  inhibition at 1000 ppm: 24%
p-IKK
  p-IKK protein expression rate: 514.98%
p-IκB
  p-IκB protein expression rate: 203.52%
p-NF-κB
  p-NF-κB protein expression rate: 185.30%

## C[C@@H]1C[C@H]2[C@@H]3CCC4=CC(=O)C=C[C@]4(C)[C@@]3(F)[C@@H](O)C[C@]2(C)[C@@]1(O)C(=O)CO [Dexamethasone]
[1]; 24 h, 1 μM, read-out: TNF-α production inhibition ability
  inhibition at 1 µM: 13.8%
[1]; 24 h, 5 μM, read-out: TNF-α production inhibition ability
  inhibition at 5 µM: 34.7%
[1]; 24 h, 10 μM, read-out: TNF-α production inhibition ability
  inhibition at 10 µM: 46.5%
[1]; 24 h, 20 μM, read-out: TNF-α production inhibition ability
  inhibition at 20 µM: 52.1%
[1]; 24 h, 50 μM (text b137), read-out: TNF-α production inhibition rate
  inhibition at 50 µM: 65%
[1]; 24 h, 80 μM, read-out: TNF-α production inhibition ability
  inhibition at 80 µM: 65.05 ± 0.6%
[2]; 24 h, 10 Mm (10 μM)
  PGE2 production inhibitory ability: 83.55%
[2]; Mus musculus, RAW264.7, 24 h, 1 μM, read-out: PGE2 production inhibitory ability
  inhibition at 1 µM: 62.3%
[2]; Mus musculus, RAW264.7, 24 h, 5 μM, read-out: PGE2 production inhibitory ability
  inhibition at 5 µM: 81.4%
[2]; Mus musculus, RAW264.7, 24 h, 20 μM, read-out: PGE2 production inhibitory ability
  inhibition at 20 µM: 86.4%
[2]; Mus musculus, RAW264.7, 24 h, 80 μM, read-out: PGE2 production inhibitory ability
  inhibition at 80 µM: 96.4%
[3]; 10 μM
  NO2 production amount: 21.29 ± 0.59 µM
[3]; 10 μM, listed as dexamethasone
  NO2 production amount: 21.29 µM
[3]; 20 μM
  NO2 production amount: 20.79 ± 0.12 µM
[3]; 20 μM, listed as dexamethasone
  NO2 production amount: 20.79 µM
[3]; 80 μM
  NO2 production amount: 19.62 ± 0.50 µM
[3]; 80 μM, listed as dexamethasone
  NO2 production amount: 19.62 µM
[3]; Mus musculus, RAW264.7, 10 μM, read-out: NO2 production inhibition rate
  inhibition at 10 µM: 21.5%
[3]; Mus musculus, RAW264.7, 20 μM, read-out: NO2 production inhibition rate
  inhibition at 20 µM: 24.7%
[3]; Mus musculus, RAW264.7, 80 μM, read-out: NO2 production inhibition rate
  inhibition at 80 µM: 32.3%
